Values of other authors in patent publication US20150191797A1, “SYSTEMS AND METHODS FOR DIAGNOSING A PREDISPOSITION TO COLON CANCER” (Institute for Cancer Research d/b/a The Research Institute …, priority 2012, published 2015).

Tested on: Werner cells
Details: camptothecin doses of 20-50 nM

Structure (SMILES): CC[C@@]1(O)C(=O)OCc2c1cc1n(c2=O)Cc2cc3ccccc3nc2-1 [Camptothecin, camptothecin]
- effect on cell cycle: S phase delay
- increase in apoptosis: 5-6 fold
